In US20100003191A1, “AURONE DERIVATIVE-CONTAINING COMPOSITION FOR DIAGNOSIS” (NAGASAKI UNIVERSITY, priority 2006, published 2010):

Experiment: In vivo radioactivity biodistribution experiment in normal mice (Example 1, Table 13)
Design: species or system ddY mice
Protocol: ^125I-labeled compounds were diluted with 10% ethanol-containing physiological saline. […] After their blood was collected, organs were removed, and the weights and radioactivities thereof were measured.
When any of the aurone derivatives was used, sufficient radioactivity to perform imaging of intracerebral amyloid migrated to the brain from the early stage of injection (1.7-4.6% ID/g). […] It was also shown that, in any of the aurone derivatives, in vivo radioactivity behavior is discharged mainly from the liver to the bile duct and the intestinal tract.

CNc1ccc(/C=C2\Oc3ccc([125I])cc3C2=O)cc1 [[^125I]12]
Biodistribution of radioactivity, Blood (2 min after injection): 4.16 (0.98) % injected dose per gram
Biodistribution of radioactivity, Blood (10 min after injection): 2.72 (1.01) % injected dose per gram
Biodistribution of radioactivity, Blood (30 min after injection): 2.84 (1.48) % injected dose per gram
Biodistribution of radioactivity, Blood (60 min after injection): 2.41 (0.70) % injected dose per gram
Biodistribution of radioactivity, Brain (2 min after injection): 3.17 (0.45) % injected dose per gram
Biodistribution of radioactivity, Brain (10 min after injection): 1.22 (0.09) % injected dose per gram
Biodistribution of radioactivity, Brain (30 min after injection): 0.32 (0.02) % injected dose per gram
Biodistribution of radioactivity, Brain (60 min after injection): 0.24 (0.05) % injected dose per gram
Biodistribution of radioactivity, Heart (2 min after injection): 5.07 (0.47) % injected dose per gram
Biodistribution of radioactivity, Heart (10 min after injection): 2.17 (0.34) % injected dose per gram
Biodistribution of radioactivity, Heart (30 min after injection): 0.98 (0.21) % injected dose per gram
Biodistribution of radioactivity, Heart (60 min after injection): 0.84 (0.37) % injected dose per gram
Biodistribution of radioactivity, Intestine (2 min after injection): 3.06 (1.11) % injected dose per gram
Biodistribution of radioactivity, Intestine (10 min after injection): 6.59 (3.43) % injected dose per gram
Biodistribution of radioactivity, Intestine (30 min after injection): 10.34 (4.91) % injected dose per gram
Biodistribution of radioactivity, Intestine (60 min after injection): 14.04 (2.87) % injected dose per gram
Biodistribution of radioactivity, Kidney (2 min after injection): 9.91 (2.00) % injected dose per gram
Biodistribution of radioactivity, Kidney (10 min after injection): 11.44 (2.76) % injected dose per gram
Biodistribution of radioactivity, Kidney (30 min after injection): 6.00 (2.14) % injected dose per gram
Biodistribution of radioactivity, Kidney (60 min after injection): 3.52 (0.77) % injected dose per gram
Biodistribution of radioactivity, Liver (2 min after injection): 11.26 (2.81) % injected dose per gram
Biodistribution of radioactivity, Liver (10 min after injection): 9.70 (2.78) % injected dose per gram
Biodistribution of radioactivity, Liver (30 min after injection): 6.11 (2.16) % injected dose per gram
Biodistribution of radioactivity, Liver (60 min after injection): 4.91 (0.72) % injected dose per gram
Biodistribution of radioactivity, Lung (2 min after injection): 6.86 (0.65) % injected dose per gram
Biodistribution of radioactivity, Lung (10 min after injection): 4.44 (0.39) % injected dose per gram
Biodistribution of radioactivity, Lung (30 min after injection): 2.41 (0.66) % injected dose per gram
Biodistribution of radioactivity, Lung (60 min after injection): 2.94 (0.62) % injected dose per gram
Biodistribution of radioactivity, Pancreas (2 min after injection): 4.83 (0.60) % injected dose per gram
Biodistribution of radioactivity, Pancreas (10 min after injection): 1.81 (0.15) % injected dose per gram
Biodistribution of radioactivity, Pancreas (30 min after injection): 0.83 (0.10) % injected dose per gram
Biodistribution of radioactivity, Pancreas (60 min after injection): 0.77 (0.28) % injected dose per gram
Biodistribution of radioactivity, Spleen (2 min after injection): 2.37 (0.41) % injected dose per gram
Biodistribution of radioactivity, Spleen (10 min after injection): 1.28 (0.19) % injected dose per gram
Biodistribution of radioactivity, Spleen (30 min after injection): 0.86 (0.14) % injected dose per gram
Biodistribution of radioactivity, Spleen (60 min after injection): 0.75 (0.17) % injected dose per gram
Biodistribution of radioactivity, Stomach (2 min after injection): 1.30 (0.43) % injected dose per organ
Biodistribution of radioactivity, Stomach (10 min after injection): 2.53 (0.97) % injected dose per organ
Biodistribution of radioactivity, Stomach (30 min after injection): 2.82 (1.88) % injected dose per organ
Biodistribution of radioactivity, Stomach (60 min after injection): 2.26 (0.88) % injected dose per organ

COc1ccc(/C=C2\Oc3ccc([125I])cc3C2=O)cc1 [[^125I]17]
Biodistribution of radioactivity, Blood (2 min after injection): 3.16 (0.82) % injected dose per gram
Biodistribution of radioactivity, Blood (10 min after injection): 1.51 (0.23) % injected dose per gram
Biodistribution of radioactivity, Blood (30 min after injection): 0.95 (0.19) % injected dose per gram
Biodistribution of radioactivity, Blood (60 min after injection): 0.70 (0.60) % injected dose per gram
Biodistribution of radioactivity, Brain (2 min after injection): 1.69 (0.43) % injected dose per gram
Biodistribution of radioactivity, Brain (10 min after injection): 0.54 (0.12) % injected dose per gram
Biodistribution of radioactivity, Brain (30 min after injection): 0.11 (0.05) % injected dose per gram
Biodistribution of radioactivity, Brain (60 min after injection): 0.03 (0.02) % injected dose per gram
Biodistribution of radioactivity, Heart (2 min after injection): 3.84 (1.04) % injected dose per gram
Biodistribution of radioactivity, Heart (10 min after injection): 1.06 (0.10) % injected dose per gram
Biodistribution of radioactivity, Heart (30 min after injection): 0.37 (0.09) % injected dose per gram
Biodistribution of radioactivity, Heart (60 min after injection): 0.25 (0.12) % injected dose per gram
Biodistribution of radioactivity, Intestine (2 min after injection): 1.59 (0.51) % injected dose per gram
Biodistribution of radioactivity, Intestine (10 min after injection): 4.70 (1.46) % injected dose per gram
Biodistribution of radioactivity, Intestine (30 min after injection): 11.67 (3.56) % injected dose per gram
Biodistribution of radioactivity, Intestine (60 min after injection): 9.02 (3.14) % injected dose per gram
Biodistribution of radioactivity, Kidney (2 min after injection): 7.26 (2.18) % injected dose per gram
Biodistribution of radioactivity, Kidney (10 min after injection): 7.00 (1.49) % injected dose per gram
Biodistribution of radioactivity, Kidney (30 min after injection): 4.93 (1.52) % injected dose per gram
Biodistribution of radioactivity, Kidney (60 min after injection): 2.43 (1.17) % injected dose per gram
Biodistribution of radioactivity, Liver (2 min after injection): 6.87 (2.18) % injected dose per gram
Biodistribution of radioactivity, Liver (10 min after injection): 5.16 (0.73) % injected dose per gram
Biodistribution of radioactivity, Liver (30 min after injection): 2.76 (0.40) % injected dose per gram
Biodistribution of radioactivity, Liver (60 min after injection): 1.86 (0.83) % injected dose per gram
Biodistribution of radioactivity, Lung (2 min after injection): 6.71 (1.39) % injected dose per gram
Biodistribution of radioactivity, Lung (10 min after injection): 1.76 (0.29) % injected dose per gram
Biodistribution of radioactivity, Lung (30 min after injection): 0.97 (0.20) % injected dose per gram
Biodistribution of radioactivity, Lung (60 min after injection): 0.75 (0.33) % injected dose per gram
Biodistribution of radioactivity, Pancreas (2 min after injection): 2.83 (0.75) % injected dose per gram
Biodistribution of radioactivity, Pancreas (10 min after injection): 0.77 (0.17) % injected dose per gram
Biodistribution of radioactivity, Pancreas (30 min after injection): 0.29 (0.14) % injected dose per gram
Biodistribution of radioactivity, Pancreas (60 min after injection): 0.16 (0.05) % injected dose per gram
Biodistribution of radioactivity, Spleen (2 min after injection): 1.45 (0.56) % injected dose per gram
Biodistribution of radioactivity, Spleen (10 min after injection): 0.74 (0.10) % injected dose per gram
Biodistribution of radioactivity, Spleen (30 min after injection): 0.48 (0.10) % injected dose per gram
Biodistribution of radioactivity, Spleen (60 min after injection): 0.43 (0.14) % injected dose per gram
Biodistribution of radioactivity, Stomach (2 min after injection): 0.68 (0.33) % injected dose per organ
Biodistribution of radioactivity, Stomach (10 min after injection): 1.06 (0.66) % injected dose per organ
Biodistribution of radioactivity, Stomach (30 min after injection): 0.48 (0.09) % injected dose per organ
Biodistribution of radioactivity, Stomach (60 min after injection): 0.96 (0.46) % injected dose per organ
